Laboratory results published in PubChem BioAssay AID298 (DTP/NCI, 2004).
Values joined by “and” are separate entries in the source; they are usually repeats but may differ in a detail not shown here. Identical values can stand only once. Inconclusive results are not listed.

Tested on: MX-1 breast xenograft, intrarenal, nude mice, tumor weight
Assay: NCI In Vivo Anticancer Drug Screen. Data for tumor model Human Mammary Carcinoma MX-1 Xenograft (intrarenal inoculation) in NU/NU BALB/C (nude) mice
Conditions: endpoint: mean tumor weight change, higher = larger tumour
Outline: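 Mice w/ transplanted tumors, drug vs vehicle; endpoint survival or tumor size; value = T/C.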

For COC(=O)[C@@]12OC[C@]34[C@H]([C@@H](O)[C@@H]1O)[C@@]1(C)CC(=O)C(OC(=O)CC(=O)OC5=C(C)[C@@H]6C[C@H]7OC(=O)[C@H](OC(=O)/C=C(\C)C(C)C)[C@H]8[C@]9(C(=O)OC)OC[C@]78[C@H]([C@@H](O)[C@@H]9O)[C@@]6(C)CC5=O)=C(C)[C@@H]1C[C@H]3OC(=O)[C@H](OC(=O)/C=C(\C)C(C)C)[C@@H]24, the T/C (dose: 3.12 mg/kg/injection, schedule: Q04DX003 (ip), vehicle: saline + Tween-80 + alcohol) was 86 % of control and the T/C (dose: 6.25 mg/kg/injection, schedule: Q04DX003 (ip), vehicle: saline + Tween-80 + alcohol) was 63 % of control.

In the case of CC(=O)O[C@H]1C(=O)[C@@]2(C)C(C(OC(=O)c3ccccc3)[C@]3(O)C[C@H](OC(=O)C(OC(=O)CCCC(=O)NCCCN(C)C)C(NC(=O)c4ccccc4)c4ccccc4)C(C)=C1C3(C)C)C1(OC(C)=O)COC1C[C@@H]2O (some centres undefined), the T/C (dose: 2.5 mg/kg/injection, schedule: Q01DX009 (ip), vehicle: water) is reported as 22 % of control, the T/C (dose: 5.0 mg/kg/injection, schedule: Q01DX009 (ip), vehicle: water) is reported as 1 % of control and the T/C (dose: 10.0 mg/kg/injection, schedule: Q01DX009 (ip), vehicle: water) is reported as 1 % of control. For the same compound, the T/C (dose: 20.0 mg/kg/injection, schedule: Q01DX009 (ip), vehicle: water) was -100 % of control and the T/C (dose: 40.0 mg/kg/injection, schedule: Q01DX009 (ip), vehicle: water) was -100 % of control.

For NC(=O)C1C=CN(Cc2ccccc2)C=C1, the T/C (dose: 100.0 mg/kg/injection, schedule: Q04DX003 (ip), vehicle: saline with Tween-80) was 62 % of control and the T/C (dose: 200.0 mg/kg/injection, schedule: Q04DX003 (ip), vehicle: saline with Tween-80) was 64 % of control.

[N-]=[N+]=CC(=O)CCC(NC(=O)OCc1ccccc1)C(=O)OCc1ccccc1 (centres undefined) was tested, and the T/C (dose: 300.0 mg/kg/injection, schedule: Q04DX003 (ip), vehicle: Klucel (hydroxypropylcellulose) (HPC)) was 6 % of control and 23 % of control and 27 % of control, the T/C (dose: 450.0 mg/kg/injection, schedule: Q04DX003 (ip), vehicle: Klucel (hydroxypropylcellulose) (HPC)) was 20 % of control and the T/C (dose: 600.0 mg/kg/injection, schedule: Q04DX003 (ip), vehicle: Klucel (hydroxypropylcellulose) (HPC)) was 6 % of control and 16 % of control. The T/C (dose: 900.0 mg/kg/injection, schedule: Q04DX003 (ip), vehicle: Klucel (hydroxypropylcellulose) (HPC)) was 1 % of control and the T/C (dose: 1200.0 mg/kg/injection, schedule: Q04DX003 (ip), vehicle: Klucel (hydroxypropylcellulose) (HPC)) was 22 % of control.

In the case of Cc1ccoc1, the T/C (dose: 50.0 mg/kg/injection, schedule: Q01DX010 (ip), vehicle: saline with Tween-80) is reported as 102 % of control, the T/C (dose: 100.0 mg/kg/injection, schedule: Q01DX010 (ip), vehicle: saline with Tween-80) is reported as 97 % of control and the T/C (dose: 200.0 mg/kg/injection, schedule: Q01DX010 (ip), vehicle: saline with Tween-80) is reported as 104 % of control.

With ClC1(Cl)Cc2ccccc21 the T/C (dose: 150.0 mg/kg/injection, schedule: Q04DX003 (ip), vehicle: saline with Tween-80) was 109 % of control, the T/C (dose: 300.0 mg/kg/injection, schedule: Q04DX003 (ip), vehicle: saline with Tween-80) was 109 % of control and the T/C (dose: 600.0 mg/kg/injection, schedule: Q04DX003 (ip), vehicle: saline with Tween-80) was 45 % of control.

With N#CC(C#N)=NNc1ccc2cn[nH]c2c1 the T/C (dose: 12.5 mg/kg/injection, schedule: Q04DX003 (ip), vehicle: Klucel (hydroxypropylcellulose) (HPC)) was 94 % of control, the T/C (dose: 50.0 mg/kg/injection, schedule: Q04DX003 (ip), vehicle: Klucel (hydroxypropylcellulose) (HPC)) was 174 % of control and the T/C (dose: 100.0 mg/kg/injection, schedule: Q04DX003 (ip), vehicle: Klucel (hydroxypropylcellulose) (HPC)) was 106 % of control.

In the case of COc1cc(NCc2ccc3nc(N)nc(N)c3c2C)cc(OC)c1OC, the T/C (dose: 15.0 mg/kg/injection, schedule: Q04DX003 (ip), vehicle: Klucel (hydroxypropylcellulose) (HPC)) is reported as 96 % of control and 101 % of control, the T/C (dose: 30.0 mg/kg/injection, schedule: Q04DX003 (ip), vehicle: Klucel (hydroxypropylcellulose) (HPC)) is reported as 81 % of control and 95 % of control and the T/C (dose: 120.0 mg/kg/injection, schedule: Q04DX003 (ip), vehicle: Klucel (hydroxypropylcellulose) (HPC)) is reported as 56 % of control and 71 % of control.

With CN1CCN(CN2C(=O)C3C4C=CC(C3C2=O)C2C3C(=O)N(CN5CCN(C)CC5)C(=O)C3C42)CC1 (centres undefined) the T/C (dose: 9.3 mg/kg/injection, schedule: Q04DX003 (ip), vehicle: water) was 98 % of control, the T/C (dose: 18.75 mg/kg/injection, schedule: Q04DX003 (ip), vehicle: water) was 106 % of control and the T/C (dose: 25.0 mg/kg/injection, schedule: Q04DX003 (ip), vehicle: water) was 67 % of control. For the same compound, the T/C (dose: 37.5 mg/kg/injection, schedule: Q04DX003 (ip), vehicle: water) was 83 % of control, the T/C (dose: 50.0 mg/kg/injection, schedule: Q04DX003 (ip), vehicle: water) was 52 % of control and the T/C (dose: 75.0 mg/kg/injection, schedule: Q04DX003 (ip), vehicle: other) was 122 % of control. For the same compound, the T/C (dose: 75.0 mg/kg/injection, schedule: Q04DX003 (ip), vehicle: water) was 72 % of control and 94 % of control and the T/C (dose: 100.0 mg/kg/injection, schedule: Q04DX003 (ip), vehicle: water) was 45 % of control.
